# Experimental data reported in ChEMBL document CHEMBL1240295, “Specificity and mechanism of action of some commonly used protein kinase inhibitors” (Biochem J, 2000).
# pIC50: −log10 of the molar value.
# Tests used:
# Bos taurus = species: Bos taurus; details: at 10 µM
# Description: Inhibition of bovine heart PKA at 10 uM
# [1] = target: Mitogen-activated protein kinase 8 (Homo sapiens) (UniProt P45983); details: at 10 µM
# Description: Inhibition of Gst-tagged human JNK1a1 expressed in Escherichia coli at 10 uM
# [2] = Inhibition of bovine heart PKA; parameters: species or system Bos taurus
# [3] = target: Rho-associated protein kinase 2 (Rattus norvegicus) (UniProt Q62868); details: Sf9, at 10 µM
# Chain of Rho-associated protein kinase 2 (Rattus norvegicus) (Q62868 whole entry, looked up): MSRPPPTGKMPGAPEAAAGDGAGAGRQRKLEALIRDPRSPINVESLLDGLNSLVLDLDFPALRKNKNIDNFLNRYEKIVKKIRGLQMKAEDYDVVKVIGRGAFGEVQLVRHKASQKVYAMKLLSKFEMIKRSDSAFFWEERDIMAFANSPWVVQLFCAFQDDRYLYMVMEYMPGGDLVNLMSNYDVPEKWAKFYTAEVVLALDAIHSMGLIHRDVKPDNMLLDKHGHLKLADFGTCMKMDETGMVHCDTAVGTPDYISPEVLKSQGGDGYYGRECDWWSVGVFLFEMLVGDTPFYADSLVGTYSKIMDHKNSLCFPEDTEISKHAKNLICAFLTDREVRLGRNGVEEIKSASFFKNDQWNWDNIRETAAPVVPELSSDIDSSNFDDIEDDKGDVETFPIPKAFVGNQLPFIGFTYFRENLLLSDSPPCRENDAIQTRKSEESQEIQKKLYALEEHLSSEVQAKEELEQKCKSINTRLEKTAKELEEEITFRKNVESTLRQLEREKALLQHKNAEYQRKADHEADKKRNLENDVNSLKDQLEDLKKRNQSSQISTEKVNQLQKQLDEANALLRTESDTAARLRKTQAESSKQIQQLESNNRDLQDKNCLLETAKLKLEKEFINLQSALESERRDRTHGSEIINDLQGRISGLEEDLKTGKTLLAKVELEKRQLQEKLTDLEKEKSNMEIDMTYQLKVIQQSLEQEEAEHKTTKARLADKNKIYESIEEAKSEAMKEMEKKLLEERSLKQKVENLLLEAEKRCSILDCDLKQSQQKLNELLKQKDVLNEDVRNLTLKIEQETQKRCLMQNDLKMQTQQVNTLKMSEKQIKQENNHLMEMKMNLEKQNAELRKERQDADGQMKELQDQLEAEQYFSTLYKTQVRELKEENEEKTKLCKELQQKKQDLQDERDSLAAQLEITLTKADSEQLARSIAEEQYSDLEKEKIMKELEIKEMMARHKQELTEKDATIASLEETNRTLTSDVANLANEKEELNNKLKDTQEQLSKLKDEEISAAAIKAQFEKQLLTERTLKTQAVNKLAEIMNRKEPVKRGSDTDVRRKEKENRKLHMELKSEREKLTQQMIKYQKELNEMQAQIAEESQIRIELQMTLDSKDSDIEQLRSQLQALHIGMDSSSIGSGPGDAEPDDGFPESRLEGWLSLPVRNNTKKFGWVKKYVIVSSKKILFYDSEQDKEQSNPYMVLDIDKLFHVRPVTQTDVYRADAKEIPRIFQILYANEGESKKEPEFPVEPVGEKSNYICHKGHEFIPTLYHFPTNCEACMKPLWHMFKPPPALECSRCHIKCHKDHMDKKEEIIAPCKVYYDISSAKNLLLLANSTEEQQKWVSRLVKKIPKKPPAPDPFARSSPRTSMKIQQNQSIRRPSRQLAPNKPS
# Description: Inhibition of rat ROCK2 expressed in Sf9 cells at 10 uM
# [4] = target: Ribosomal protein S6 kinase beta-1 (Homo sapiens, UniProt P23443); details: at 10 µM
# Chain of Ribosomal protein S6 kinase beta-1 (P23443 whole entry, looked up): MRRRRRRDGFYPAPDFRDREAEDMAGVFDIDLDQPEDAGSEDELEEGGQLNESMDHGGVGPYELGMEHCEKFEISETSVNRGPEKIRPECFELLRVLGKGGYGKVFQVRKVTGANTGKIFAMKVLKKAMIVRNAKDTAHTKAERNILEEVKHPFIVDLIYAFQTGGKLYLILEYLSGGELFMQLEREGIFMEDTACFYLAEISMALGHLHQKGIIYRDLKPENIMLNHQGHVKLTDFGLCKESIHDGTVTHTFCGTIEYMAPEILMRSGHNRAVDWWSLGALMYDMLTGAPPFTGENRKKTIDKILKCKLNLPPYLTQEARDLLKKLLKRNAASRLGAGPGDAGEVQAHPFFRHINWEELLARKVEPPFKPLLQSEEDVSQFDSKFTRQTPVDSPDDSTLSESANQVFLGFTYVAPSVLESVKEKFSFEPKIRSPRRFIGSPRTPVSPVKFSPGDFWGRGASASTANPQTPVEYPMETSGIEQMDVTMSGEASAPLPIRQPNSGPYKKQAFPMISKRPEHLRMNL
# Description: Inhibition of His-tagged human S6K1 expressed in Escherichia coli at 10 uM
# Oryctolagus cuniculus [5] = species: Oryctolagus cuniculus; details: at 10 µM
# Description: Inhibition of rabbit MKK1 expressed in Escherichia coli at 10 uM
# [6] = target: Ribosomal protein S6 kinase alpha-5 (Homo sapiens, UniProt O75582); details: Sf9, at 10 µM
# Chain of Ribosomal protein S6 kinase alpha-5 (O75582 whole entry, looked up): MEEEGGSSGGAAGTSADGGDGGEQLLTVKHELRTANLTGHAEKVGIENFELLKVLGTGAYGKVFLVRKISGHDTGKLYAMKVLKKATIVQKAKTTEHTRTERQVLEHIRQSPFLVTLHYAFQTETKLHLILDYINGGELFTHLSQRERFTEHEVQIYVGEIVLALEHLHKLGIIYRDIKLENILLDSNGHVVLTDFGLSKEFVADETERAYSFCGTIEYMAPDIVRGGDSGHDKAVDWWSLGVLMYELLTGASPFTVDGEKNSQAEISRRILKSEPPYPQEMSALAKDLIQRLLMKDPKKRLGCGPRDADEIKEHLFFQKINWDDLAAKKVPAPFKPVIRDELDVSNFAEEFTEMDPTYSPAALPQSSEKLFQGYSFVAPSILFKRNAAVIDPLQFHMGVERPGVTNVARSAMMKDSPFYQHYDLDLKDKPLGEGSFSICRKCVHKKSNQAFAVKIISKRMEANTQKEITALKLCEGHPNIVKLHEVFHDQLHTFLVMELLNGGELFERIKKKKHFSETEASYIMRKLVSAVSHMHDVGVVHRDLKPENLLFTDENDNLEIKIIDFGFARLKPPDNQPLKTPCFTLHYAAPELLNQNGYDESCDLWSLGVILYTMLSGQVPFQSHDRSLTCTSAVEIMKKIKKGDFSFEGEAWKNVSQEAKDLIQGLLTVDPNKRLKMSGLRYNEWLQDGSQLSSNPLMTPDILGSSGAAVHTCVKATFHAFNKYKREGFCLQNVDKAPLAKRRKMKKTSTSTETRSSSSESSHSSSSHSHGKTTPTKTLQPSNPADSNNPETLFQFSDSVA
# Description: Inhibition of His-tagged human MSK1 expressed in Sf9 cells at 10 uM
# [7] = target: Glycogen synthase kinase-3 beta (Homo sapiens, UniProt P49841); details: Sf21, at 10 µM
# Description: Inhibition of His-tagged human GSK3b expressed in Sf21 cells at 10 uM
# [8] = target: Mitogen-activated protein kinase 1 (Homo sapiens) (UniProt P28482); details: at 10 µM
# Description: Inhibition of Gst-tagged human MAPK2/ERK2 expressed in Escherichia coli at 10 uM
# [9] = target: T1, MAP kinase-activated protein kinase 5 (Homo sapiens) (UniProt Q8IW41); details: Sf9, at 10 µM
# T1 sequence (whole entry): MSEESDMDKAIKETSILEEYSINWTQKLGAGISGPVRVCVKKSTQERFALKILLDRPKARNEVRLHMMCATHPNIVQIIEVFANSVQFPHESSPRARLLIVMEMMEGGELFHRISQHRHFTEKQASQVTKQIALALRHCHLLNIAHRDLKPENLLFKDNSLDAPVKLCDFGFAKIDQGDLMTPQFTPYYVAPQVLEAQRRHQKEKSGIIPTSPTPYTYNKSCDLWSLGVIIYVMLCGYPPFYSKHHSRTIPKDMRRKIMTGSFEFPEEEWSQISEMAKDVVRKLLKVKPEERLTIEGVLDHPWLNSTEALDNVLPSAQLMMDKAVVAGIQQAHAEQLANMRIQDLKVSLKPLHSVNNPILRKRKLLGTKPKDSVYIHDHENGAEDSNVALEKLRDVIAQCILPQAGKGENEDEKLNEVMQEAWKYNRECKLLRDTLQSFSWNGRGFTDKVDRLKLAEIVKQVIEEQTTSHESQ
# Description: Inhibition of His-tagged human PRAK expressed in Sf9 cells at 10 uM
# Oryctolagus cuniculus [10] = species: Oryctolagus cuniculus; details: Muscle tissue, at 10 µM
# Description: Inhibition of PHK from rabbit skeletal muscle at 10 uM
# [11] = target: Mitogen-activated protein kinase 14 (Homo sapiens) (UniProt Q16539); details: at 10 µM
# Description: Inhibition of Gst-tagged human SAPK2a/p38 expressed in Escherichia coli at 10 uM
# [12] = target: MAP kinase-activated protein kinase 2 (Homo sapiens, UniProt P49137); details: at 10 µM
# Description: Inhibition of Gst-tagged human MAPKAPK2 expressed in Escherichia coli at 10 uM
# [13] = target: Mitogen-activated protein kinase 11 (Homo sapiens) (UniProt Q15759); details: at 10 µM
# Description: Inhibition of Gst-tagged human SAPK2b/p38--beta-2 expressed in Escherichia coli at 10 uM
# Oryctolagus cuniculus [14] = species: Oryctolagus cuniculus; details: Muscle tissue, at 10 µM; remark: listed apart in the source
# Description: Inhibition of MAPKAPK1b from rabbit skeletal muscle at 10 uM
# [15] = target: RAC-alpha serine/threonine-protein kinase (Homo sapiens) (UniProt P31749); details: Sf9, at 10 µM
# Chain of RAC-alpha serine/threonine-protein kinase (Homo sapiens) (P31749 whole entry): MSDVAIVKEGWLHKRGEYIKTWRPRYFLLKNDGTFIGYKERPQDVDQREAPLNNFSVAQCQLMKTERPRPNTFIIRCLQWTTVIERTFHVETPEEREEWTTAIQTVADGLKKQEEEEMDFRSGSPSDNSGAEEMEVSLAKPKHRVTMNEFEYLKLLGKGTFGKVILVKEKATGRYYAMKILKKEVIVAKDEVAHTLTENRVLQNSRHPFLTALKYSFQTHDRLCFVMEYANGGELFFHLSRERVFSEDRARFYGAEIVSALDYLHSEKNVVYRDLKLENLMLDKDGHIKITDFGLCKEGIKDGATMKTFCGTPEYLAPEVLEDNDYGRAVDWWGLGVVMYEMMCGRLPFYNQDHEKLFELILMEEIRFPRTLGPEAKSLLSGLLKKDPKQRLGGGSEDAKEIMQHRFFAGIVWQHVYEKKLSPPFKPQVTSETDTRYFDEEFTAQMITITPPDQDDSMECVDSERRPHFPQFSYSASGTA
# Description: Inhibition of human PKBalpha expressed in SF9 cells at 10 uM
# [16] = target: Tyrosine-protein kinase Lck (Homo sapiens) (UniProt P06239); details: Sf9, at 10 µM
# Description: Inhibition of His-tagged human LCK expressed in Sf9 cells at 10 uM
# [17] = target: Protein kinase C alpha type (Homo sapiens, UniProt P17252); details: at 10 µM
# Description: Inhibition of His-tagged human PKCalpha expressed in Escherichia coli at 10 uM
# [18] = target: T2, Mitogen-activated protein kinase 13 (Homo sapiens) (UniProt O15264); details: at 10 µM
# T2 sequence (whole entry): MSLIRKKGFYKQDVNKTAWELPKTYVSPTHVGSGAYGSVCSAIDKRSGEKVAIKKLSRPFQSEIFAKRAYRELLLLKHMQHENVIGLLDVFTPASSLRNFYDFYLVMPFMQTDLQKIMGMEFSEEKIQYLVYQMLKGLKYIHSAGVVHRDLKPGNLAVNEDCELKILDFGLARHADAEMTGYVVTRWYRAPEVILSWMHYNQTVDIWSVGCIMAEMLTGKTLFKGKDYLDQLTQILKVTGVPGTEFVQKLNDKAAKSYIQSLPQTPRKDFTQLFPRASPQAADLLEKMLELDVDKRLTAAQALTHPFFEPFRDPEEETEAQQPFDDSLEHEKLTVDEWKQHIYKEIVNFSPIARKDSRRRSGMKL
# Description: Inhibition of Gst-tagged human SAPK4/p38delta expressed in Escherichia coli at 10 uM
# [19] = target: T3, Serine/threonine-protein kinase Chk1 (Homo sapiens) (UniProt O14757); details: at 10 µM
# T3 sequence (whole entry): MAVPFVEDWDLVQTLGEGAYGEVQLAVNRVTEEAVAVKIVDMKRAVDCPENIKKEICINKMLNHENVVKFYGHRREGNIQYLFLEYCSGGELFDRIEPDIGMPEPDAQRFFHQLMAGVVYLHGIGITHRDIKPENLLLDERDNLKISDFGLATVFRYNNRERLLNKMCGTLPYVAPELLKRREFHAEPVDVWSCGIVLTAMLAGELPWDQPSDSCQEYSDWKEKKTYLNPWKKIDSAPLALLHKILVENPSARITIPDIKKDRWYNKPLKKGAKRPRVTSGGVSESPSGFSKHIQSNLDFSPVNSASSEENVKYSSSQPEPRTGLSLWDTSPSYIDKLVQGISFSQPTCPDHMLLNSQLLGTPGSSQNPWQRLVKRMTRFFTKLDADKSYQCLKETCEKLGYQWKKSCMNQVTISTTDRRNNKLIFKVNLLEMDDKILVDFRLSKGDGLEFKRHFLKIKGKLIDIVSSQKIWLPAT
# Description: Inhibition of His-tagged human CHK1 expressed in Escherichia coli at 10 uM
# [20] = Inhibition of PHK from rabbit skeletal muscle; type: tissue-based, Oryctolagus cuniculus, Muscle tissue
# [21] = target: T4, Mitogen-activated protein kinase 12 (Homo sapiens) (UniProt P53778); details: at 10 µM
# T4 sequence (whole entry): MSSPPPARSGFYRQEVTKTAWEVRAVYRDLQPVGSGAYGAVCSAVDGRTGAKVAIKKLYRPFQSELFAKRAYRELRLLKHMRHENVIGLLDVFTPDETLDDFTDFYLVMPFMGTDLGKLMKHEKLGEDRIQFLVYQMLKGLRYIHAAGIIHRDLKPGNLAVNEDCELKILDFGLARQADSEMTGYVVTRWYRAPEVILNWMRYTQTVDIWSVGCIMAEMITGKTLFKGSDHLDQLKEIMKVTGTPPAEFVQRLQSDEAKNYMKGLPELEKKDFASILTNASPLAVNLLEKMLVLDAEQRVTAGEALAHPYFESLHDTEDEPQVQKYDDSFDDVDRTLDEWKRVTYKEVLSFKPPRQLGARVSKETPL
# Description: Inhibition of Gst-tagged human SAPK3/p38gamma expressed in Escherichia coli at 10 uM
# Rattus norvegicus = species: Rattus norvegicus; details: at 10 µM
# Description: Inhibition of rat liver AMPK at 10 uM
# [22] = target: 3-phosphoinositide-dependent protein kinase 1 (Homo sapiens) (UniProt O15530); details: Sf21, at 10 µM
# Chain of 3-phosphoinositide-dependent protein kinase 1 (Homo sapiens) (O15530 whole entry, looked up): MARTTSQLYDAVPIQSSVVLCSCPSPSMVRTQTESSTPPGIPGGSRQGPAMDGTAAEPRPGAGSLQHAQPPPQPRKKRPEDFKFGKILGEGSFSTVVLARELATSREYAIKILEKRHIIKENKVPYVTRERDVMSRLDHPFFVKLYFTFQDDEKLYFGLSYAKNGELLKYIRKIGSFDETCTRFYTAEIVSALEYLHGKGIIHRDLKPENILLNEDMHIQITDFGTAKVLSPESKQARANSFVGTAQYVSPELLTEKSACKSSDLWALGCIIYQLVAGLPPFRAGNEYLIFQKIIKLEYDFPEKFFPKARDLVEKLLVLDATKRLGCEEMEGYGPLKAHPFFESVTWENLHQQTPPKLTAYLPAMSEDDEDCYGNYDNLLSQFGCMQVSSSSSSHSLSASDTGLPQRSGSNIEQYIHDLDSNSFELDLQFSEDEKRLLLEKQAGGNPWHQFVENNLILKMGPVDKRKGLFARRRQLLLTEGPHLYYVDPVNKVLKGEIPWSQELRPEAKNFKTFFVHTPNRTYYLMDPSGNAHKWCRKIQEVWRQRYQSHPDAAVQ
# [23] = target: Casein kinase II (Homo sapiens) (UniProt P67870+P68400+P19784); details: Sf9, at 10 µM
# Description: Inhibition of His-tagged human CK2 expressed in Sf9 cells at 10 uM
# [24] = target: T5, Serine/threonine-protein kinase Sgk1 (Homo sapiens) (UniProt O00141); details: Sf9, at 10 µM
# T5 sequence (whole entry): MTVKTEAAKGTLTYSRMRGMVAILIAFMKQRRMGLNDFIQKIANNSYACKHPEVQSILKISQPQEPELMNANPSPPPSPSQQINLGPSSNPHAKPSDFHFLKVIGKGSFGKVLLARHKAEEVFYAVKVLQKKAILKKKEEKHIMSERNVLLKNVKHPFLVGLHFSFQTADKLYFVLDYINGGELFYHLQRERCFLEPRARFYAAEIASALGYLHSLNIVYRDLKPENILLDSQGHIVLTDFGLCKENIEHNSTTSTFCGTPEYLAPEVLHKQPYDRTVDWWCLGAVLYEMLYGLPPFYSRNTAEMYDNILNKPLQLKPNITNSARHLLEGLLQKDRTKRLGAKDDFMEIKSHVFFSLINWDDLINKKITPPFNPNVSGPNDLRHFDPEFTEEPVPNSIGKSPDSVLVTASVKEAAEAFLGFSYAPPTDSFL
# Description: Inhibition of His-tagged human SGK expressed in Sf9 cells at 10 uM
# Chain of Mitogen-activated protein kinase 8 (Homo sapiens) (P45983 whole entry): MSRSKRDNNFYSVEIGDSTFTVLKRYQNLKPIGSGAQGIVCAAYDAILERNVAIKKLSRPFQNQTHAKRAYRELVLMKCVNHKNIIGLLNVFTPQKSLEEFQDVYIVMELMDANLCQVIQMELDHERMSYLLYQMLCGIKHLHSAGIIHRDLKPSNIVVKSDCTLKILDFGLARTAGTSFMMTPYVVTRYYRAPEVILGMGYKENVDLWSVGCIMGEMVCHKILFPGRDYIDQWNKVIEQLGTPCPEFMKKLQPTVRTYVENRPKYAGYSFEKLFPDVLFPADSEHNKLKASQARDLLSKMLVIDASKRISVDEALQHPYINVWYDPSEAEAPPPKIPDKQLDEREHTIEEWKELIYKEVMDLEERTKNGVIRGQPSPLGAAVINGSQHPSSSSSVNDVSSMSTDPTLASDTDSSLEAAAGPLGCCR
compound,measurement,setting,value
CCCCCCOC(=O)[C@@]1(O)C[C@H]2O[C@]1(C)n1c3ccccc3c3c4c(c5c6ccccc6n2c5c31)C(=O)NC4,residual activity,Bos taurus,39%
same,residual activity,[1],81%
same,pIC50,[2],5.48
same,residual activity,[3],84%
same,residual activity,[4],66%
same,residual activity,Oryctolagus cuniculus [5],20%
same,residual activity,[6],39%
same,residual activity,[7],39%
same,residual activity,[8],57%
same,residual activity,[9],58%
same,"level, % of control",Oryctolagus cuniculus [10],0%
same,residual activity,[11],103%
same,residual activity,[12],62%
same,residual activity,[13],98%
same,"level, % of control",Oryctolagus cuniculus [14],23%
same,residual activity,[15],36%
same,residual activity,[16],46%
same,residual activity,[17],87%
same,residual activity,[18],95%
same,residual activity,[19],13%
same,pIC50,[20],7.96
same,residual activity,[21],95%
same,residual activity,Rattus norvegicus,22%
same,residual activity,[22],7%
same,residual activity,[23],95%
same,residual activity,[24],29%
